# Laboratory results taken from patent publication US4226879A, “Antibiotic composition” (Kyowa Hakko Kogyo Kabushiki Kaisha, priority 1976, dated 1980).
# Counter-ions that a name gives are not always drawn.
# System: Eimeria tenella K-2
# Experiment: anticoccidial test in chicks (Example 4)
# Conditions: for Caecal lession (numbers of chicks), ++: grade ++ (middle); for Caecal lession (numbers of chicks), +++: grade +++ (heavy)
# [1] = 0.025 % in diet, groups of 10 chicks
# [2] = 0.0125 % in diet, groups of 10 chicks
# [3] = 0.0033 % in diet, groups of 10 chicks
# [4] = 0.0066 % in diet, groups of 10 chicks
Compound,Survival ratio (0.0125 % in diet),Survival ratio (0.025 % in diet),"Caecal lession (numbers of chicks), ++ [1]","Caecal lession (numbers of chicks), +++ [2]","Caecal lession (numbers of chicks), +++ [1]",Survival ratio (0.0033 % in diet),Survival ratio (0.0066 % in diet),"Caecal lession (numbers of chicks), + (grade + (light), 0.0066 % in diet, groups of 10 chicks)","Caecal lession (numbers of chicks), ++ [3]","Caecal lession (numbers of chicks), ++ [4]","Caecal lession (numbers of chicks), +++ [3]","Caecal lession (numbers of chicks), +++ [4]"
"CCCc1ncc(C[n+]2ccccc2C)c(N)n1 [Amprolium hydrochloride, reference compound]",40%,70%,2 numbers of chicks,10 numbers of chicks,8 numbers of chicks,,,,,,,
"Cc1nc(C)c(Cl)c(O)c1Cl [Clopidol, reference compound]",50%,70%,4 numbers of chicks,10 numbers of chicks,6 numbers of chicks,,,,,,,
"N=C(N/N=C/c1ccc(Cl)cc1)N/N=C/c1ccc(Cl)cc1 [Robenidine hydrochloride, reference compound]",,,,,,80%,100%,2 numbers of chicks,2 numbers of chicks,5 numbers of chicks,8 numbers of chicks,3 numbers of chicks
